US20230413860A1, “Abscisic Acid-Mixed Pig Feed” (Sumitomo Chemical Company, Limited, priority 2020, published 2023)

Experiments:
Format in all cases: in vivo, pig
[1] = Effect of abscisic acid on reducing productivity decrease due to cold stress in young pigs; settings: for Feed Conversion Rate (Feed Intake/Body Weight Gain, Average value) / Feed Intake (Average value) / Body Weight Gain (Average value): low temperature (20.4° C.), young pigs; for Body Weight Gain (Average value): age 35 to 70 days
Procedure: Eighty four (84) crossbred young pigs (LWD) at an age of 28 days were employed in this test. Body weight of the each young pigs was measured and seven animals were assigned to one section considering the average body weight across the sections was equal, and the three sections (replicates) were assigned to a total four test groups. The test period was from 28 to 70 day-old, and S-abscisic acid was (hereinafter, referred to as “S-ABA”) used as a test substance. The S-ABA was added to the feed at the concentrations shown in Table 1, and the feed containing S-ABA was fed daily to the pigs at the age of 28 to 70 days. The low temperature environment was carried out from the age of 36 to 70 days of the pigs.
The following four groups were set.
(§1) The pigs were raised at the optimal temperature from the age of 28 to 35 day-old. After the age of 36 days, the pigs of the Test group 1 were housed at an optimal temperature and the pigs of the Test groups 2 to 4 were exposed to a particular low temperature by air conditioner. The raising temperature were measured with a thermo-hygrometer or a data logger which was installed near the center of the raising room, and then recorded. The average room temperature of the optimal temperature group was 26.1° C., and the average room temperature of the low temperature group was 20.4° C.
(§2) As a feed, an early feed, middle feed or late feed of MAMACOLO which was manufactured by FEED ONE CO., LTD. (2-6, Higashifukasiba Kamisu-shi, Ibaraki) was given by ad libitum feeding. A drinking water was freely ingested by a waterer with a picker. The early feed was given until the age of 35 days of the pig, the middle feed was given at the age of from 36 days to 42 days, and the late feed was given at the age of post 43 days.
• (i) Clinical symptoms: observed daily. • (ii) Body weight: Body weight was measured for each individual at the age of 28, 35 and 70 days old, and the average weight gain per a section from the age of 35 to 70 days during the test period was calculated. • (iii) Feed intake: Feed intake was measured daily for each section, and feed intake for one animal per a week was calculated. Also, feed conversion rate (feed intake/body weight gain) was calculated from “Average feed intake” and “Average body weight gain per section” during the test period.

[2] = Effect of abscisic acid on reducing productivity decrease due to heat stress in young pigs; settings: for Feed Conversion Rate (Feed Intake/Body Weight Gain, Average value) / Feed Intake (Average value) / Body Weight Gain (Average value): high temperature (30.6° C.), young pigs; for Body Weight Gain (Average value): age 35 to 70 days
Procedure: Eighty four (84) of crossbred young pigs (LWD) at an age of 28 days were employed in this test. Body weight of the each young pigs was measured and seven animals were assigned to one section considering the average body weight across the sections was equal, and the three sections (replicates) were assigned to a total four test groups. The test period was from 28 to 70 day-old, and S-abscisic acid was used as a test substance. The S-ABA was added to the feed at the concentrations shown in the Table 6, and the feed containing S-ABA was fed daily to the pigs at the age of 28 to 70 days. The high temperature environment was carried out from the age of 36 to 70 days of the pigs.
The following four groups were set. Three sections (repetitions) per one group was set, which were assigned to each test group as indicated in the below Table.
as §1, with “36 days” for “36 days,”, “particular high” for “particular low”, “was 30.6°” for “was 20.4°”
as §2, with “a feed, similarly to the test example 1, an early” for “a feed, an early”
• (i) Clinical symptoms: observed daily. • (ii) Body weight: Body weight was measured for each individual at the age of 28, 35 and 70 days old, and the average weight gain per a section from the age of 35 to 70 days during the test period was calculated. • (iii) Feed intake: Feed intake was measured daily by each section, and feed intake for one animal per a week was calculated. Also, feed conversion rate (feed intake/body weight gain) was calculated from “Average feed intake” and “Average body weight gain per section” during the test period.

reduced glutathione = assay: Effect of abscisic acid on increasing production of reduced glutathione in small intestine of gilts
Excerpt: Twelve (12) of gilts at an age of 8 months were employed in this test. The S-ABA (particle size of 0.1 to 1 mm) in the amounts as shown in Table 11 was supplemented in the feed for about 40 days from the day of artificial insemination.
• (i) Clinical symptoms: observed daily. • (ii) Sampling of intestinal tracts: The pig was dissected on the 40th day of pregnancy, and the small intestine was sampled.
The measurement results of reduced glutathione in a small intestine after the administration for about 40 days are shown in Table 12. Using a commercially available glutathione measuring kit (manufactured by DOJINDO CHEMICALS Inc.; […]), the reduced glutathione contained in 1 g of small intestine tissue was determined quantitatively.

CC1=CC(=O)CC(C)(C)[C@@]1(O)/C=C/C(C)=C\C(=O)O [ABA, (S)-(+)-abscisic acid]
Clinical symptoms ([1]; 0.1, 0.5 or 1 ppm in feed, age 28 to 70 days, observed daily, low temperature): No abnormality was seen | Feed Conversion Rate (Feed Intake/Body Weight Gain, Average value) ([1]; 0.1 ppm ABA in feed): 4.40 | Feed Intake (Average value) ([1]; 0.1 ppm ABA in feed): 29.81 kg | Body Weight Gain (Average value) ([1]; 0.1 ppm ABA in feed): 16.99 kg | Feed Conversion Rate (Feed Intake/Body Weight Gain, Average value) ([1]; 0.5 ppm ABA in feed): 4.29 | Feed Intake (Average value) ([1]; 0.5 ppm ABA in feed): 29.91 kg | Body Weight Gain (Average value) ([1]; 0.5 ppm ABA in feed): 16.40 kg | Feed Conversion Rate (Feed Intake/Body Weight Gain, Average value) ([1]; 1.0 ppm ABA in feed): 4.41 | Feed Intake (Average value) ([1]; 1.0 ppm ABA in feed): 30.30 kg | Body Weight Gain (Average value) ([1]; 1.0 ppm ABA in feed): 17.00 kg | Clinical symptoms ([2]; 0.1, 0.5 or 1 ppm in feed, age 28 to 70 days, observed daily, high temperature): No abnormality was seen | Feed Conversion Rate (Feed Intake/Body Weight Gain, Average value) ([2]; 0.1 ppm ABA in feed): 4.54 | Feed Intake (Average value) ([2]; 0.1 ppm ABA in feed): 30.7 kg | Body Weight Gain (Average value) ([2]; 0.1 ppm ABA in feed): 18.04 kg | Feed Conversion Rate (Feed Intake/Body Weight Gain, Average value) ([2]; 0.5 ppm ABA in feed): 4.25 | Feed Intake (Average value) ([2]; 0.5 ppm ABA in feed): 29.7 kg | Body Weight Gain (Average value) ([2]; 0.5 ppm ABA in feed): 18.25 kg | Feed Conversion Rate (Feed Intake/Body Weight Gain, Average value) ([2]; 1.0 ppm ABA in feed): 3.91 | Feed Intake (Average value) ([2]; 1.0 ppm ABA in feed): 32.9 kg | Body Weight Gain (Average value) ([2]; 1.0 ppm ABA in feed): 19.02 kg | Reduced glutathione in small intestine tissue compared to the no dosing S-ABA group (reduced glutathione; 10 ppm S-ABA in feed for about 40 days): increased amount of reduced glutathione in small intestine tissue significantly | Reduced glutathione Amount (reduced glutathione; 10 ppm S-ABA in feed for about 40 days from artificial insemination, small intestine tissue): 0.234 μmol/g wet tissue | Clinical symptoms (reduced glutathione; 10 ppm S-ABA in feed for about 40 days, observed daily): No abnormality was seen
